From patent US20260337228A1, “COMPOSITION AND METHOD FOR TREATING NEONATAL HYPOXIC-ISCHEMIC ENCEPHALOPATHY” (SUZHOU GLENKOL PHARMA TECHNOLOGY CO., LTD., priority 2023, published 2026)

How the values were obtained:
[1] = tested on: cerebral cortical neural cells; assay: Lactate dehydrogenase (LDH) cytotoxicity assay after oxygen-glucose deprivation; type: cell-based, neonatal rat; conditions: 2 mM NaP, positive control; 24 hours after injury; vs untreated oxygen-glucose deprivation group, p<0.05
Experimental: Culture of cerebral cortical neural cells: The brains of neonatal rats were dissected, the meninges removed, and the cerebral cortex isolated. The cortical tissues were digested with papain, single cells collected, and plated onto lysine-treated coverslips and cultured in Neurobasal™ serum-free medium. To mimic hypoxic-ischemic encephalopathy injury in vitro, the Neurobasal medium was replaced with DMEM medium at 7 days in vitro (DIV7), and cells were cultured under 21% O2/5% CO2 for 2.5 hours to serve as the control group, or Neurobasal medium replaced with glucose-free DMEM medium and cells cultured under 0% O2/5% CO2 for 2.5 hours to serve as the oxygen-glucose deprivation treatment group. After treatment, both groups were returned to Neurobasal medium and cultured normally under 21% O2/5% CO2 for 24 hours. […]
Lactate dehydrogenase (LDH) kit cytotoxicity assay: After 24 hours of normal culture, collect the cell culture supernatant from each group, add the LDH assay working solution, mix thoroughly, and incubate at room temperature in the dark for 30 minutes. Then, measure the absorbance at 490 nm and calculate the LDH release level, which indicates cytotoxicity. […]

[2] = tested on: cerebral cortical neural cells; assay: MTT assay for cell viability after oxygen-glucose deprivation; type: cell-based, neonatal rat; conditions: 2 mM NaP, positive control; 24 hours after injury; vs untreated oxygen-glucose deprivation group, p<0.05
Experimental: Culture of cerebral cortical neural cells: The brains of neonatal rats were dissected, the meninges removed, and the cerebral cortex isolated. The cortical tissues were digested with papain, single cells collected, and plated onto lysine-treated coverslips and cultured in Neurobasal™ serum-free medium. To mimic hypoxic-ischemic encephalopathy injury in vitro, the Neurobasal medium was replaced with DMEM medium at 7 days in vitro (DIV7), and cells were cultured under 21% O2/5% CO2 for 2.5 hours to serve as the control group, or Neurobasal medium replaced with glucose-free DMEM medium and cells cultured under 0% O2/5% CO2 for 2.5 hours to serve as the oxygen-glucose deprivation treatment group. After treatment, both groups were returned to Neurobasal medium and cultured normally under 21% O2/5% CO2 for 24 hours.
S1 Pretreatment: At the start of the oxygen-glucose deprivation treatment, cells were simultaneously treated with S1 (final concentrations of 0.01 μM, 0.1 μM, 1 μM, or 10 μM), or with the scrambled peptide Tat-NRRRNSKLQHKKY (SEQ ID NO: 10), or with NaP (Davunetide) as a control.
MTT assay for cell viability: After 24 hours of normal culture, MTT solution was added to each group and cultured for an additional 4 hours. […] Then, measure the absorbance at 490 nm and calculate the MTT formation level, which indicates cell viability. […]

CC[C@H](C)[C@H](NC(=O)[C@H](CO)NC(=O)[C@@H](NC(=O)[C@@H]1CCCN1C(=O)[C@H](C)NC(=O)[C@@H](N)CC(N)=O)C(C)C)C(=O)N1CCC[C@H]1C(=O)N[C@@H](CCC(N)=O)C(=O)O [NaP, Davunetide]
LDH release levels [1]: significantly reduced LDH release levels | MTT formation levels [2]: significantly increased MTT formation levels
